Laboratory results as given in patent US10995099B2, “Compounds and their uses as ACC inhibitors” (NANJING RUIJIE PHARMATECH CO., LTD., priority 2017, dated 2021).
Read-outs that look alike come from different tables or passages of the source.

Assays:
[1] = molecular target: ACC1 (Homo sapiens (Human), UniProt Q13085); assay: In vitro ACC inhibition assay (ADP-Glo), ACC1; format: biochemical
Procedure: (§1) Compounds of the present invention were evaluated in an in vitro ACC inhibition assay as described by Harwood, et al, 2003, the entirety of which is incorporated herein by reference.
(§2) In Vitro Acetyl-CoA Carboxylase (ACC) Inhibition Assay
(§3) An exemplary procedure for the in vitro ACC inhibition assay, which can be used to determine the inhibitory action of compounds of the invention toward either ACC1 or ACC2, follows. The ADP-Glo™ Kinase Assay kit from Promega was used. The ADP-Glo™ Kinase Assay is a luminescent ADP detection assay to measure enzymatic activity by quantifying the amount of ADP produced during an enzyme reaction. The assay is performed in two steps; first, after the enzyme reaction, an equal volume of ADP-Glo™ Reagent is added to terminate the reaction and deplete the remaining ATP. Second, the Kinase Detection Reagent is added to simultaneously convert ADP to ATP and allow the newly synthesized ATP to be measured using a luciferase/luciferin reaction. Luminescence can be correlated to ADP concentrations by using an ATP-to-ADP conversion curve. The detailed procedure is as follows. 50 μL of the compound being tested (600 uM in DMSO) was added to a 384-well dilution plate. The compound was diluted 1:3 in succession in DMSO for each row for 11 wells. 0.5 μL ACC2 working solution was added to 384-well white Optiplate assay plate. 0.5 μL diluted compound solution in each column from step 2 to assay plate, each row containing 2 replicates. […] The plates were incubated at room temperature for 15 minutes. 5 μL substrate working solution was added to each well to initiate reaction. Final ACC2 reaction concentrations consist of: 5 nM ACC2, 20 μM ATP, 20 μM acetyl-CoA, 12 mM NaHCO3, 0.01% Brij35, 2 mM DTT, 5% DMSO, test compound concentrations: 30 μM, 10 μM, 3.33 μM, 1.11 μM, 0.37 μM, 0.123 μM, 0.0411 μM, 0.0137 μM, 0.00457 μM, 0.00152 μM, and 0.00051 μM. Plates were incubated at room temperature for 60 minutes. 10 μL ADP glo reagent was added. Plates were incubated at room temperature for 40 minutes. 20 μL kinase detection reagent was added. Plates were incubated at room temperature for 40 minutes, then read on a Perkin Elmer EnVision 2104 plate reader for luminescence as Relative Light Units (RLU).
(§4) Data for each concentration, as well as the positive and negative controls were averaged, and the standard deviation calculated. Percent inhibition was calculated by the formula: 100×(average negative control-compound)/(average negative control-average positive control). The IC50 for each compound was calculated by fitting the data with a non-linear regress ion equation: Y=Bottom+(Top−Bottom)/(1+10((Log IC50−X* HillSlope)), where X is the log of compound concentration and Y is percent inhibition.

[2] = test system: A549; assay: EC50 in A549; format: cell-based
[3] = test system: HepG2; assay: EC50 in HepG2; format: cell-based
[4] = test system: MDA-MB-468; assay: EC50 in MDA-MB-468; format: cell-based
[5] = molecular target: ACC2 (Homo sapiens (Human), UniProt O00763); assay: In vitro ACC inhibition assay (ADP-Glo), ACC2; format: biochemical
Sequence of ACC2 (Homo sapiens (Human), UniProt O00763) (O00763 whole entry, species assumed): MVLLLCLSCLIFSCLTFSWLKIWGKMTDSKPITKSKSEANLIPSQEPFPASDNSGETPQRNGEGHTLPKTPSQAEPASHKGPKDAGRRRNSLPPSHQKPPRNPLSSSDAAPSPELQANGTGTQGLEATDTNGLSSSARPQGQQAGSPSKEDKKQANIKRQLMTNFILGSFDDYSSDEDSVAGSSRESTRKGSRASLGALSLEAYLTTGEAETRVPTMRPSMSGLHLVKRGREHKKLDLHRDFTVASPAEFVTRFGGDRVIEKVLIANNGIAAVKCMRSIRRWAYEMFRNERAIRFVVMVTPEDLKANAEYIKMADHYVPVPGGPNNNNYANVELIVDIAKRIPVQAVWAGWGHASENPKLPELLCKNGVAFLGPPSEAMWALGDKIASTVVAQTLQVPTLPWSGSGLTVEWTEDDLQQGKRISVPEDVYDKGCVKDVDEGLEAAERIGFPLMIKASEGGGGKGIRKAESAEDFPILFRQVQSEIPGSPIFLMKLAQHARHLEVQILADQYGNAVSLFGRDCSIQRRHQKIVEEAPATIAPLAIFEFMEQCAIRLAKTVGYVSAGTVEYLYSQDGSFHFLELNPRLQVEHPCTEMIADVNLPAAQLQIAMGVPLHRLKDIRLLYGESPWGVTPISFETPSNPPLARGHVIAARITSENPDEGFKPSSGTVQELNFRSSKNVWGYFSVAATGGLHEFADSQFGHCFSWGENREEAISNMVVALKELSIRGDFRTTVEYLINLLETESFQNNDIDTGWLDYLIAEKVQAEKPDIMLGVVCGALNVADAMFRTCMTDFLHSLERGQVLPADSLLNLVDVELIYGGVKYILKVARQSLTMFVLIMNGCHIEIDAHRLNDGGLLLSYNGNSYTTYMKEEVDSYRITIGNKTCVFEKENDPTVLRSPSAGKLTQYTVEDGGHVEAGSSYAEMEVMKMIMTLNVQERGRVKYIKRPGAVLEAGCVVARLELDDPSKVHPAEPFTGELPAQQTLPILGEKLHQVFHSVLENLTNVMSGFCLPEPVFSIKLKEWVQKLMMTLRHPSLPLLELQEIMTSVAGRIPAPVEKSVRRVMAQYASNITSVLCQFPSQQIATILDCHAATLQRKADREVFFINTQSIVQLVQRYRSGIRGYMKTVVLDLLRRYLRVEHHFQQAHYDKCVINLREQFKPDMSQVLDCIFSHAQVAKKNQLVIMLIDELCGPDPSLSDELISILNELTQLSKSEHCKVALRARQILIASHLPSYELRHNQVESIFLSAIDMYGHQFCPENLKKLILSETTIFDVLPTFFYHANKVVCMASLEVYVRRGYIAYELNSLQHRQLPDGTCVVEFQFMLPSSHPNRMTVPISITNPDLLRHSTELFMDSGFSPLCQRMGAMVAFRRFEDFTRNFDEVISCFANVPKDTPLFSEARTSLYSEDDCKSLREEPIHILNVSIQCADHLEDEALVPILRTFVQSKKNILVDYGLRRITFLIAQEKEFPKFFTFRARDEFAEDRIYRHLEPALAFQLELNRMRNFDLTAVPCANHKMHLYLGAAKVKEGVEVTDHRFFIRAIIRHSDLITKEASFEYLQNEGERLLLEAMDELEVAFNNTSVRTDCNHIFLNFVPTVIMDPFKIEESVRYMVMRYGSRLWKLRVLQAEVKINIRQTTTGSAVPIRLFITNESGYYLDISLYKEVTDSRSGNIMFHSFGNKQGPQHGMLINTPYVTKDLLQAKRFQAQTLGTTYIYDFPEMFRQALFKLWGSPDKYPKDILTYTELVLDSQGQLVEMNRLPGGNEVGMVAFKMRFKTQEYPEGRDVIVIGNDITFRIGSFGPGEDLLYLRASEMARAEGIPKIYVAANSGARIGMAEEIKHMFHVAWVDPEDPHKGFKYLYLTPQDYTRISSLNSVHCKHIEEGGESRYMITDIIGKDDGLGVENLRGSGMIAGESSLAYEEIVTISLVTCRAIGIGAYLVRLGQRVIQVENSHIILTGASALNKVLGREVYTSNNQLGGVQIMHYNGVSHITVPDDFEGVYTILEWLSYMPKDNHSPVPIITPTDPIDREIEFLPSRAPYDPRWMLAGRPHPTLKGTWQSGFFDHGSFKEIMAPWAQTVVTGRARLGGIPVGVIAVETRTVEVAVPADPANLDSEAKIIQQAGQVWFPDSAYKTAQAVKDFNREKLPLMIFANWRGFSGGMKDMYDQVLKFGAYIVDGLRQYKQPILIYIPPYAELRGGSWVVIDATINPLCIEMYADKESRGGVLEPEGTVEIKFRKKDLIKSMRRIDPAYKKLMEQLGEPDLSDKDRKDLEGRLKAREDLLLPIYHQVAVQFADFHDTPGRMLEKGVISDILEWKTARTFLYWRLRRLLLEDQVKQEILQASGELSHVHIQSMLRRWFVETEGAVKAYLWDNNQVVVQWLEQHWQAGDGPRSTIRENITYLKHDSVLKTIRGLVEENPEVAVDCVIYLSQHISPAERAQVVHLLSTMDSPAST
Procedure: as §1, §2, §3, §4

[6] = test system: ACC2; conditions: ACC2 isolated from rat, mouse, monkey and human; cited from earlier work
[7] = test system: ACC1; conditions: ACC1 isolated from rat, mouse, monkey and human; cited from earlier work
[8] = HepG2, read-out: EC50 (μM) HepG2
[9] = ND630 versus RJ compounds, read-out: EC50 (μM) ND630/RJ-cmps(%)
[10] = MDA-MB-468, read-out: EC50 (μM) MDA-MB-468
[11] = 5 nM ACC2, 20 μM ATP, 20 μM acetyl-CoA, read-out: IC50 (μM) ACC2
[12] = ND630 versus RJ compounds, isoform not given, read-out: IC50 (μM) ND630/RJ-cmps(%)

Row | Structure (SMILES) | IC50 [1] [µM] | EC50 ([2]; A549, read-out: EC50 (μM) A549) [µM] | EC50 [3, 8] [µM] | EC50 [3, 9] [µM] | EC50 [4, 10] [µM] | IC50 [5, 11] [µM] | IC50 [5, 12] [µM] | EC50 ([2]; A549, reference, read-out: EC50 A549 (cisplatin)) [µM] | EC50 ([4]; MDA-MB-468, reference, read-out: EC50 MDA-MB-468 (cisplatin)) [µM] | IC50 [6] [nM] | IC50 [7] [nM]
1 | COc1ccccc1[C@H](Cn1c(=O)n(C2(C(=O)O)CC2)c(=O)c2c(C)c(-c3ncco3)sc21)OC1CCOCC1 [Example 33] | < 0.001 | < 0.5 | 0.01 to 0.1 | > 1 | 1 to 10 | < 0.01 | 0.003 to 0.005 | – | – | – | –
2 | CNC(=O)C1(n2c(=O)c3c(C)c(-c4ncco4)sc3n(CC(OC3CCOCC3)c3ccccc3OC)c2=O)CCCC1 (stereo not drawn) [Example 44] | 0.001 to 0.01 | – | < 0.01 | > 1 | – | 0.01 to 0.1 | 0.005 to 0.01 | – | – | – | –
3 | COc1ccccc1[C@H](Cn1c(=O)n(C2(CC(=O)O)CC2)c(=O)c2c(C)c(-c3ncco3)sc21)OC1CCOCC1 [Example 61] | 0.01 to 0.05 | – | 0.1 to 1 | > 1 | – | < 0.01 | – | – | – | – | –
4 | COc1ccccc1[C@H](Cn1c(=O)n(C2(C(=O)O)CCC2)c(=O)c2c(C)c(Br)sc21)OC1CCOCC1 [Example 31] | 0.001 to 0.01 | < 0.5 | 0.01 to 0.1 | > 1 | > 10 | < 0.01 | 0.003 to 0.005 | – | – | – | –
5 | COc1ccccc1C(Cn1c(=O)n(C2(C(=O)O)CCC2)c(=O)c2c(C)c(-c3ncco3)sc21)OC1CCOCC1 (stereo not drawn) [Example 37] | < 0.001 | < 0.5 | 0.01 to 0.1 | > 1 | > 10 | < 0.01 | 0.005 to 0.01 | – | – | – | –
6 | N.N.[Cl][Pt][Cl] [cisplatin, reference compound] | – | – | – | – | – | – | – | 1.28 | 0.68 | – | –
7 | COc1ccccc1C(Cn1c(=O)n(C2(C(N)=O)CCC2)c(=O)c2c(C)c(-c3ncco3)sc21)OC1CCOCC1 (stereo not drawn) [Example 54] | 0.001 to 0.01 | – | < 0.01 | > 1 | – | 0.01 to 0.1 | 0.005 to 0.01 | – | – | – | –
8 | COc1ccccc1C(Cn1c(=O)n(C2(C(N)=O)CC2)c(=O)c2c(C)c(-c3ncco3)sc21)OC1CCOCC1 (stereo not drawn) [Example 46] | 0.001 to 0.01 | – | 0.01 to 0.1 | > 1 | – | 0.01 to 0.1 | 0.005 to 0.01 | – | – | – | –
9 | CNC(=O)CC1(n2c(=O)c3c(C)c(-c4ncco4)sc3n(C[C@H](OC3CCOCC3)c3ccccc3OC)c2=O)CC1 [Example 63] | 0.001 to 0.01 | – | 0.01 to 0.1 | > 1 | – | 0.01 to 0.1 | – | – | – | – | –
10 | COc1ccccc1[C@H](Cn1c(=O)n(C(C)(C)C(=O)O)c(=O)c2c(C)c(-c3ncco3)sc21)OC1CCOCC1 [Example 38] | < 0.001 | < 0.5 | 0.01 to 0.1 | > 1 | > 10 | < 0.01 | 0.005 to 0.01 | – | – | – | –
11 | COc1ccccc1[C@H](Cn1c(=O)n(C2(C(=O)NS(C)(=O)=O)CC2)c(=O)c2c(C)c(-c3ncco3)sc21)OC1CCOCC1 [Example 41] | – | < 0.5 | > 1 | > 1 | 1 to 10 | < 0.01 | 0.005 to 0.01 | – | – | – | –
12 | COc1ccccc1C(Cn1c(=O)n(C2(C(=O)O)CCCC2)c(=O)c2c(C)c(-c3ncco3)sc21)OC1CCOCC1 (stereo not drawn) [Example 36] | 0.001 to 0.01 | 0.5 to 1 | 0.01 to 0.1 | > 1 | > 10 | < 0.01 | 0.003 to 0.005 | – | – | – | –
13 | COc1ccccc1[C@H](Cn1c(=O)n(C2(C(=O)O)CC2)c(=O)c2c(C)c(Br)sc21)OC1CCOCC1 [Example 29] | 0.001 to 0.01 | 0.5 to 1 | 0.01 to 0.1 | 0.1 to 1 | > 10 | < 0.01 | 0.003 to 0.005 | – | – | – | –
14 | COc1ccccc1[C@H](Cn1c(=O)n(C(C)(C)C(N)=O)c(=O)c2c(C)c(-c3ncco3)sc21)OC1CCOCC1 [Example 42] | – | < 0.5 | < 0.01 | > 1 | > 10 | – | – | – | – | – | –
15 | COc1ccccc1[C@H](Cn1c(=O)n(C2(C(=O)O)CC2)c(=O)c2c(C)c(Cl)sc21)OC1CCOCC1 [Example 40] | – | > 1 | 0.1 to 1 | > 1 | > 10 | 0.01 to 0.1 | 0.005 to 0.01 | – | – | – | –
16 | O=C(c1c2ccccc2cc2ccccc12)N1CCC(N2CCC[C@@H](C(=O)N3CCOCC3)C2)CC1 [CP-640186] | – | – | – | – | – | – | – | – | – | 60 | 60
17 | CNC(=O)C1(n2c(=O)c3c(C)c(-c4ncco4)sc3n(CC(OC3CCOCC3)c3ccccc3OC)c2=O)CC1 (stereo not drawn) [Example 47] | 0.001 to 0.01 | – | 0.01 to 0.1 | > 1 | – | 0.01 to 0.1 | 0.005 to 0.01 | – | – | – | –
18 | CNC(=O)CC1(n2c(=O)c3c(C)c(Br)sc3n(C[C@H](OC3CCOCC3)c3ccccc3OC)c2=O)CC1 [Example 62] | 0.001 to 0.01 | – | 0.01 to 0.1 | > 1 | – | 0.01 to 0.1 | – | – | – | – | –
19 | COc1ccccc1C(Cn1c(=O)n(C2(C(N)=O)CCC2)c(=O)c2c(C)c(Br)sc21)OC1CCOCC1 (stereo not drawn) [Example 51] | 0.01 to 0.05 | – | 0.01 to 0.1 | > 1 | – | 0.01 to 0.1 | 0.003 to 0.005 | – | – | – | –
20 | COc1ccccc1[C@H](Cn1c(=O)n(C2(C(=O)O)CCCC2)c(=O)c2c(C)c(Br)sc21)OC1CCOCC1 [Example 30] | – | > 1 | 0.1 to 1 | > 1 | > 10 | < 0.01 | 0.003 to 0.005 | – | – | – | –
21 | COc1ccccc1[C@H](Cn1c(=O)n(C2(C(=O)O)CCCC2)c(=O)c2c(C)c(-n3nccn3)sc21)OC1CCOCC1 [Example 55] | < 0.001 | – | < 0.01 | > 1 | – | < 0.01 | 0.005 to 0.01 | – | – | – | –
22 | COc1ccccc1[C@H](Cn1c(=O)n(C2(CC(N)=O)CC2)c(=O)c2c(C)c(-c3ncco3)sc21)OC1CCOCC1 [Example 64] | 0.001 to 0.01 | – | < 0.01 | > 1 | – | < 0.01 | – | – | – | – | –
23 | COc1ccccc1[C@H](Cn1c(=O)n(C2CCC2C(=O)O)c(=O)c2c(C)c(-c3ncco3)sc21)OC1CCOCC1 (stereo partly drawn) [Example 69] | < 0.001 | – | < 0.01 | > 1 | – | < 0.01 | > 0.01 | – | – | – | –
24 | COc1ccccc1C(Cn1c(=O)n(C2(C(N)=O)CCCC2)c(=O)c2c(C)c(-c3ncco3)sc21)OC1CCOCC1 (stereo not drawn) [Example 43] | 0.001 to 0.01 | – | < 0.01 | > 1 | – | < 0.01 | 0.005 to 0.01 | – | – | – | –
25 | CNC(=O)C1(n2c(=O)c3c(C)c(Br)sc3n(CC(OC3CCOCC3)c3ccccc3OC)c2=O)CCC1 (stereo not drawn) [Example 52] | 0.01 to 0.05 | – | 0.01 to 0.1 | > 1 | – | 0.01 to 0.1 | 0.003 to 0.005 | – | – | – | –
